Source: US7144992B2, “Synergistic antimicrobial compositions and methods for reducing biofilm formation” (Kane Biotech Inc., priority 2004, dated 2006)

How the values were obtained:
Solubility = conditions: for solubility in organic solvents: DMSO, methanol, acetone and acetonitrile
thioredoxin reductase = conditions: enzyme crosslinked with the thiol-specific reagent; Donna et al., Prot. Sci. 7:369–375, 1998; cited from earlier work

O=C1C=CC(=O)N1c1ccc2ccc3cccc4ccc1c2c34 [PyrM, N-(1-pyrenyl) maleimide]
solubility in organic solvents (Solubility): soluble in organic solvents | solubility in water (Solubility): not soluble in water

O=C1C=CC(=O)N1c1ccccc1N1C(=O)C=CC1=O [oPDM, N,N′-(1,2-phenylene) dimaleimide]
solubility in organic solvents (Solubility): soluble in organic solvents | solubility in water (Solubility): not soluble in water | decrease in thioredoxin reductase activity (thioredoxin reductase): 95%
